Results: patent US8901105B2, “Prodrug derivatives of (E)-N-methyl-N-((3-M ethylbenzofuran-2-yl)methyl)-3-(7-oxo-5,6,7,8-tetrahydro-1,8-naphthyridin-3-yl)acrylamide” (Affinium Pharmaceuticals, Inc., priority 2012, dated 2014)
Converted amounts (≈) assume the structure as drawn. Counter-ions that a name gives are not always drawn. Like-named read-outs stand apart in the source and are kept apart here.

Tests used:
Enterococcus faecalis = test: Broth microdilution MIC; assay type: cell-based
Experimental: (§1) Bacterial Isolates. Organisms tested in this study are listed in Table P. Clinical isolates consisted of 5 Staphylococcus aureus (MSSA), 3 Staphylococcus aureus (HA-MRSA), 2 Staphylococcus aureus (CA-MRSA), 2 Enterococcus faecalis (VSE), 2 Streptococcus pyogenes, and 2 Escherichia coli (susceptible to most antibiotics). S. aureus ATCC 29213, E. faecalis ATCC 29212, S. pneumoniae ATCC 49619, and E. coli ATCC 25922 were tested for the purposes of quality control.
(§2) Minimal Inhibitory Concentrations (MIC) values against the selected isolates were determined using the reference broth microdilution method according to the Clinical Laboratory Standards Institute (CLSI) guidelines.
(§3) The MIC was read and recorded as the lowest concentration of drug that inhibited visible growth of the organism.

Escherichia coli = test: Broth microdilution MIC; assay type: cell-based
Experimental: as §1, §2, §3

Staphylococcus aureus = test: Broth microdilution MIC; assay type: cell-based; conditions: Staphylococcus aureus
Experimental: as §1, §2, §3

Streptococcus pneumoniae = test: Broth microdilution MIC; assay type: cell-based
Experimental: as §1, §2, §3

Streptococcus pyogenes = test: Broth microdilution MIC; assay type: cell-based
Experimental: as §1, §2, §3

[1] = Solid-state stability (HPLC % area after storage); assay type: physicochemical; conditions: for Solid-state stability % Area: 4 weeks
Experimental: (§4) Various compounds disclosed herein have been placed on long-term solid-state stability protocol. The compounds were stored in glass vials closed with PTFE lined caps at 30° C./65% RH, 40° C./75% RH, 50° C. and 60° C. (ambient humidity). The results of the study after 4 weeks are shown in Table B1 and after 3 months in Table B2. Appearance and purity analysis were conducted using HPLC and XPRD. The HPLC analyses were conducted using standard equipment such as a Agilent HP1100 HPLC (Station ID: LZPES HPLC 04) with YMC-Pack ODS-AQ sub 3 μm, 150×4.6 mm

[2] = XRPD crystal form after storage; assay type: physicochemical; conditions: 4 weeks storage
Experimental: as §4, with “mm Samples were prepared for XRPD by sprinkling ˜20 mg onto a Si wafer zero background plate and pressing the material flat to ensure the surface is smooth and level. The samples were analyzed according the equipment parameters below.” for “mm”

[3] = Aqueous solubility of salts at 25° C.; assay type: physicochemical; conditions: water, 25° C., mg free acid equivalent/mL; for solubility: thermodynamic from solid, read-out: Solubility in Water; for Solubility in Water: dipotassium salt
[4] = ATCC29212, E. faecalis ATCC 29212, read-out: MIC
[5] = E. faecalis 4158, VSE, read-out: MIC
[6] = E. faecalis 4212, VSE, read-out: MIC
[7] = Escherichia coli, ATCC25922, E. coli ATCC 25922, read-out: MIC
[8] = Escherichia coli, E. coli 2214, read-out: MIC
[9] = Escherichia coli, E. coli 5255, read-out: MIC
[10] = ATCC29213, S. aureus ATCC 29213, read-out: MIC
[11] = MRSA, S. aureus 3083, HA-MRSA, read-out: MIC
[12] = MRSA, S. aureus 3086, HA-MRSA, read-out: MIC
[13] = MRSA, S. aureus 3265, HA-MRSA, read-out: MIC
[14] = MSSA, S. aureus 3104, MSSA, read-out: MIC
[15] = MSSA, S. aureus 3107, MSSA, read-out: MIC
[16] = MSSA, S. aureus 3245, MSSA, read-out: MIC
[17] = MSSA, S. aureus 3250, MSSA, read-out: MIC
[18] = MSSA, S. aureus 3856, MSSA, read-out: MIC
[19] = S. aureus 2168, CAMRSA, read-out: MIC
[20] = S. aureus 2294, CAMRSA, read-out: MIC
[21] = ATCC49619, S. pneumoniae ATCC 49619, read-out: MIC
[22] = Streptococcus pyogenes, S. pyogenes 6179, read-out: MIC

| Compound | MIC (Enterococcus faecalis; [4]) [µg/mL] | MIC (Enterococcus faecalis; [5]) [µg/mL] | MIC (Enterococcus faecalis; [6]) [µg/mL] | MIC (Escherichia coli; [7]) [µg/mL] | MIC (Escherichia coli; [8]) [µg/mL] | MIC (Escherichia coli; [9]) [µg/mL] | MIC (Staphylococcus aureus; [10]) [µg/mL] | MIC (Staphylococcus aureus; [11]) [µg/mL] | MIC (Staphylococcus aureus; [12]) [µg/mL] | MIC (Staphylococcus aureus; [13]) [µg/mL] | MIC (Staphylococcus aureus; [14]) [µg/mL] | MIC (Staphylococcus aureus; [15]) [µg/mL] | MIC (Staphylococcus aureus; [16]) [µg/mL] | MIC (Staphylococcus aureus; [17]) [µg/mL] | MIC (Staphylococcus aureus; [18]) [µg/mL] | MIC (Staphylococcus aureus; [19]) [µg/mL] | MIC (Staphylococcus aureus; [20]) [µg/mL] | MIC (Streptococcus pneumoniae; [21]) [µg/mL] | MIC (Streptococcus pyogenes; S. pyogenes 6528) [µg/mL] | MIC (Streptococcus pyogenes; [22]) [µg/mL] | other results |
| --- | --- | --- | --- | --- | --- | --- | --- | --- | --- | --- | --- | --- | --- | --- | --- | --- | --- | --- | --- | --- | --- |
| O=C(O)c1cn(C2CC2)c2cc(N3CCNCC3)c(F)cc2c1=O [Ciprofloxacin] | 0.5 (≈ 1.51 µM) | 64 (≈ 193 µM) | 32 (≈ 96.6 µM) | 0.008 (≈ 0.0241 µM) | 0.015 (≈ 0.0453 µM) | 0.008 (≈ 0.0241 µM) | 0.5 (≈ 1.51 µM) | 32 (≈ 96.6 µM) | > 64 | > 64 | 0.25 (≈ 0.754 µM) | 0.5 (≈ 1.51 µM) | 0.5 (≈ 1.51 µM) | 2 (≈ 6.04 µM) | > 64 | 16 (≈ 48.3 µM) | > 64 | 0.5 (≈ 1.51 µM) | 0.5 (≈ 1.51 µM) | 0.5 (≈ 1.51 µM) | – |
| Cc1c(CN(C)C(=O)/C=C/c2cnc3c(c2)CCC(=O)N3COP(=O)([O-])[O-])oc2ccccc12.[K+].[K+] [Compound 11] | – | – | – | – | – | – | – | – | – | – | – | – | – | – | – | – | – | – | – | – | content after storage (degradation) ([1]; 4 weeks at 40/75): ~65%; chemical stability ([1]; over 1 month at 30° C./65% RH, 40° C./75% RH and 50° C., closed vials, light protected): not chemically stable; change in XRPD [2]: some changes |
| Cc1c(CN(C)C(=O)/C=C/c2cnc3c(c2)CCC(=O)N3COP2(=O)[O][Mg][O]2)oc2ccccc12 [Compound 12, (E)-6-[(N-methyl-((3-methylbenzofuran-2-yl)methyl)amino)-3-oxoprop-1-en-1-yl)-2-oxo-3,4-dihydro-1,8-naphthyridin-1 (2H)-yl]methylphosphate magnesium salt] | – | – | – | – | – | – | – | – | – | – | – | – | – | – | – | – | – | – | – | – | solubility [3]: < 1000 µg/mL |
| Cc1c(CN(C)C(=O)/C=C/c2cnc3c(c2)CCC(=O)N3COP2(=O)[O][Ca][O]2)oc2ccccc12 [Compound 13, (E)-6-[(N-methyl-((3-methylbenzofuran-2-yl)methyl)amino)-3-oxoprop-1-en-1-yl)-2-oxo-3,4-dihydro-1,8-naphthyridin-1(2H)-yl]methylphosphate calcium salt] | – | – | – | – | – | – | – | – | – | – | – | – | – | – | – | – | – | – | – | – | solubility [3]: < 100 µg/mL |
| Cc1c(CN(C)C(=O)/C=C/c2cnc3c(c2)CCC(=O)N3)oc2ccccc12 [Compound IV, (E)-N-methyl-N-((3-methylbenzofuran-2-yl)methyl)-3-(7-oxo-5,6,7,8-tetrahydro-1,8-naphthyridin-3-yl)acrylamide, reference compound] | – | – | – | – | – | – | – | – | – | – | – | – | – | – | – | – | – | – | – | – | solubility ([3]; 25 °C): < 1 µg/mL |
| Cc1c(CN(C)C(=O)/C=C/c2cnc3c(c2)CCC(=O)N3)oc2ccccc12 [Compound Z, (E)-N-methyl-N-((3-methylbenzofuran-2-yl)methyl)-3-(7-oxo-5,6,7,8-tetrahydro-1,8-naphthyridin-3-yl)acrylamide] | > 2 | > 2 | > 2 | > 2 | > 2 | > 2 | 0.004 (≈ 0.0107 µM) | 0.004 (≈ 0.0107 µM) | 0.03 (≈ 0.0799 µM) | 0.004 (≈ 0.0107 µM) | 0.015 (≈ 0.04 µM) | 0.004 (≈ 0.0107 µM) | 0.015 (≈ 0.04 µM) | 0.004 (≈ 0.0107 µM) | 0.004 (≈ 0.0107 µM) | 0.004 (≈ 0.0107 µM) | 0.03 (≈ 0.0799 µM) | > 2 | >2 | > 2 | – |
| CC(=O)NC[C@H]1CN(c2ccc(N3CCOCC3)c(F)c2)C(=O)O1 [Linezolid] | 1 (≈ 2.96 µM) | 1 (≈ 2.96 µM) | 1 (≈ 2.96 µM) | 64 (≈ 190 µM) | > 64 | 64 (≈ 190 µM) | 4 (≈ 11.9 µM) | 2 (≈ 5.93 µM) | 2 (≈ 5.93 µM) | 2 (≈ 5.93 µM) | 2 (≈ 5.93 µM) | 2 (≈ 5.93 µM) | 2 (≈ 5.93 µM) | 4 (≈ 11.9 µM) | 2 (≈ 5.93 µM) | 2 (≈ 5.93 µM) | 2 (≈ 5.93 µM) | 1 (≈ 2.96 µM) | 1 (≈ 2.96 µM) | 1 (≈ 2.96 µM) | – |
| CN[C@H](CC(C)C)C(=O)N[C@H]1C(=O)N[C@@H](CC(N)=O)C(=O)N[C@H]2C(=O)N[C@H]3C(=O)N[C@H](C(=O)N[C@H](C(=O)O)c4cc(O)cc(O)c4-c4cc3ccc4O)[C@H](O)c3ccc(c(Cl)c3)Oc3cc2cc(c3O[C@@H]2O[C@H](CO)[C@@H](O)[C@H](O)[C@H]2O[C@H]2C[C@](C)(N)[C@H](O)[C@H](C)O2)Oc2ccc(cc2Cl)[C@H]1O [Vancomycin] | – | – | – | – | – | – | – | – | – | – | – | – | – | – | – | – | – | – | 0.25 (≈ 0.173 µM) | – | MIC (Enterococcus faecalis; ATCC29212, E. faecalis ATCC 29212): 1 µg/mL (≈ 0.69 µM); MIC (Enterococcus faecalis; E. faecalis 4158, VSE): > 64 µg/mL; MIC (Enterococcus faecalis; E. faecalis 4212, VSE): 16 µg/mL (≈ 11 µM); MIC (Escherichia coli; E. coli 5255): >64 µg/mL; MIC (Escherichia coli; Escherichia coli): > 64 µg/mL; MIC (Escherichia coli; Escherichia coli, ATCC25922): > 64 µg/mL; MIC (Staphylococcus aureus; ATCC29213, S. aureus ATCC 29213): 0.5 µg/mL (≈ 0.345 µM); MIC (Staphylococcus aureus; MRSA, S. aureus 3083, HA-MRSA): 0.5 µg/mL (≈ 0.345 µM); MIC (Staphylococcus aureus; MRSA, S. aureus 3086, HA-MRSA): 1 µg/mL (≈ 0.69 µM); MIC (Staphylococcus aureus; MRSA, S. aureus 3265, HA-MRSA): 0.5 µg/mL (≈ 0.345 µM); MIC (Staphylococcus aureus; MSSA, S. aureus 3104): 0.5 µg/mL (≈ 0.345 µM); MIC (Staphylococcus aureus; MSSA, S. aureus 3107): 0.5 µg/mL (≈ 0.345 µM); MIC (Staphylococcus aureus; MSSA, S. aureus 3245): 0.5 µg/mL (≈ 0.345 µM); MIC (Staphylococcus aureus; MSSA, S. aureus 3250): 0.5 µg/mL (≈ 0.345 µM); MIC (Staphylococcus aureus; MSSA, S. aureus 3856): 1 µg/mL (≈ 0.69 µM); MIC (Staphylococcus aureus; S. aureus 2168, CAMRSA): 1 µg/mL (≈ 0.69 µM); MIC (Staphylococcus aureus; S. aureus 2294, CAMRSA): 1 µg/mL (≈ 0.69 µM); MIC (Streptococcus pneumoniae; ATCC49619): 0.12 µg/mL (≈ 0.0828 µM); MIC (Streptococcus pyogenes; Streptococcus pyogenes): 0.25 µg/mL (≈ 0.173 µM) |
| (E)-6-[(N-methyl-((3-methylbenzofuran-2-yl)methyl)amino)-3-oxoprop-1-en-1-yl)-2-oxo-3,4-dihydro-1,8-naphthyridin-1(2H)-yl]methylphosphate dipotassium salt [Bis-Potassium (amorphous) (Compound 11)] | – | – | – | – | – | – | – | – | – | – | – | – | – | – | – | – | – | – | – | – | Solubility in Water [3]: >100000 µg/mL |
| (E)-6-[(N-methyl-((3-methylbenzofuran-2-yl)methyl)amino)-3-oxoprop-1-en-1-yl)-2-oxo-3,4-dihydro-1,8-naphthyridin-1(2H)-yl]methylphosphate dipotassium salt [Bis-Potassium (crystalline) (Compound 11)] | – | – | – | – | – | – | – | – | – | – | – | – | – | – | – | – | – | – | – | – | Solubility in Water [3]: 30000 to 35000 µg/mL; Solid-state stability % Area ([1]; 30° C./65% RH): 87.8 % Area; Solid-state stability % Area ([1]; 40° C./75% RH): 64.3 % Area; Solid-state stability % Area ([1]; 50° C./ambient humidity): 72.5 % Area; Solid-state stability % Area ([1]; 60° C./ambient humidity): 50.7 % Area; Solid-state stability % Area ([1]; Control (ambient lab conditions protected from light)): 95.4 % Area |
